Experimental data as given in PubChem BioAssay (NCI).
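All cell lines were grown in 96-well plates and treated with compound for 48 hours. Definition used: TGI = concentration required for complete inhibition of growth.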

Legend:
Test in all cases: NCI anticancer screen, dose series, 48 h
[1] = tested on: 786-0 renal
[2] = tested on: ACHN renal
[3] = tested on: HOP-92 NSCLC
[4] = tested on: MALME-3M melanoma
[5] = tested on: MDA-MB-231 breast
[6] = tested on: NCI-H23 lung
[7] = tested on: NCI/ADR-RES ovarian
[8] = tested on: OVCAR-3 ovarian
[9] = tested on: OVCAR-4 ovarian
[10] = tested on: OVCAR-5 ovarian
[11] = tested on: OVCAR-8 ovarian
[12] = tested on: PC-3 prostate
[13] = tested on: SF-268 CNS
[14] = tested on: SK-MEL-2 melanoma
[15] = tested on: SK-MEL-28 melanoma
[16] = tested on: SK-OV-3 ovarian
[17] = tested on: T-47D breast
[18] = tested on: TK-10 renal
[19] = tested on: UO-31 renal

SMILES | TGI [1] [µM] | TGI [2] [µM] | TGI [3] [µM] | TGI [4] [µM] | TGI [5] [µM] | TGI [6] [µM] | TGI [7] [µM] | TGI [8] [µM] | TGI [9] [µM] | TGI [10] [µM] | TGI [11] [µM] | TGI [12] [µM] | TGI [13] [µM] | TGI [14] [µM] | TGI [15] [µM] | TGI [16] [µM] | TGI [17] [µM] | TGI [18] [µM] | TGI [19] [µM]
COc1ccc2c(c1)c1c(n2CCN2CCOCC2)-c2cccc(OC)c2CC1 | > 100 | > 100 | > 100 | 66.3 | > 100 | > 100 | > 100 | > 100 | > 100 | > 100 | > 100 | > 100 | > 100 | > 100 | > 100 | > 100 | > 100 | > 100 | > 100
CN(CCNC(=O)c1c[nH]c2c1ccc1ccccc12)CCNC(=O)c1c[nH]c2c1ccc1ccccc12 | 2.87 | 4.72 | 7.2 | 23 | 3.2 | 11.3 | 13.1 | 17.3 | 11.7 | 12.3 | 3.91 | 6.68 | 11.6 | 3.91 | 4.16 | 18.4 | 2.7 | 9.75 | 2.67
CNC(=O)N(CCC#N)CCN(C(=O)N(C)C)c1ccccc1 | > 100 | > 100 | > 100 | > 100 | > 100 | > 100 | > 100 | > 100 | > 100 | > 100 | > 100 | > 100 | > 100 | > 100 | > 100 | > 100 | > 100 | > 100 | > 100
O=[N+]([O-])C1=Cc2cc(Cl)ccc2OC1c1cccc2ccccc12 (stereo unspecified) | 1.37 | 2.99 | 3 | 2.91 | 6.23 | 5.46 | > 22.3 | 2.95 | 3.09 | 4.05 | 1.42 | 2.23 | 3.29 | 3.13 | 3.13 | 4.86 | 2.81 | 2.55 | 2.51
